Measurements from patent publication US11325936B2, “Sialidase inhibitors and preparation thereof” (The Regents of the University of California, priority 2017, dated 2022).

Columns and labels:
SpNanC [1] = biological target: T1, SpNanC (Streptococcus pneumoniae, UniProt A0A0H2UQE4); details: Tris-HCl pH 7.0, 10 min at 37° C.
SpNanB [2] = biological target: T2, SpNanB (Streptococcus pneumoniae serotype 4, UniProt Q54727, E68D/K536E/K577E/N393D/S59P); assay: Substrate specificity of SpNanB; details: pNP-tagged α2-3-linked sialosides
T2 sequence (Q54727 30-697 S59P/E68D/N393D/K536E/K577E): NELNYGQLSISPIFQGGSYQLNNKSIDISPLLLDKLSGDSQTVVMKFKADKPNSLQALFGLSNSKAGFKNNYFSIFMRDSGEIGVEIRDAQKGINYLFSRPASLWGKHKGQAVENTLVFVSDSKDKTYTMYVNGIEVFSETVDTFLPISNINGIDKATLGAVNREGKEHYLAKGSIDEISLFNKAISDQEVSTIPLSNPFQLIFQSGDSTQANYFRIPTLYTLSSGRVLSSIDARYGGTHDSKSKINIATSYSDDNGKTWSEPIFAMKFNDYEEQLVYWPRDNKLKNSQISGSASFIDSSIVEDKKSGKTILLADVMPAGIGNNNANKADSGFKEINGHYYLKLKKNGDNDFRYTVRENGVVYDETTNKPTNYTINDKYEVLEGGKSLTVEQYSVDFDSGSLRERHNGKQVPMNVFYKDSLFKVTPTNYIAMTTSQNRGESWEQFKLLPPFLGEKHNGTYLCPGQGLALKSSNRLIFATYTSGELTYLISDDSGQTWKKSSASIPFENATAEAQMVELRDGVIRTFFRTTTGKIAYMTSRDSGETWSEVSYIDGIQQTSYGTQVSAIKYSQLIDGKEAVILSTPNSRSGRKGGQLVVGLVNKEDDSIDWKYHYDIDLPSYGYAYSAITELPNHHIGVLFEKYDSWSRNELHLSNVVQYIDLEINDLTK

SpNanC [3] = assay: Substrate specificity assay of SpNanC; details: sialoside substrate 0.3 mM; SpNanC (2 μg); Tris-HCl pH 7.0; 30 min, 37° C.
hNEU2 = hNEU2 (Homo sapiens, UniProt Q9Y3R4); assay: Sialidase inhibition assay (Example 7); format: biochemical; details: 1 mM of each inhibitor; substrate Neu5Acα2-3GalβpNP 0.3 mM; pH 5.0; read-out: Percentage inhibition (%) against hNEU2
Chain of hNEU2 (Q9Y3R4 whole entry): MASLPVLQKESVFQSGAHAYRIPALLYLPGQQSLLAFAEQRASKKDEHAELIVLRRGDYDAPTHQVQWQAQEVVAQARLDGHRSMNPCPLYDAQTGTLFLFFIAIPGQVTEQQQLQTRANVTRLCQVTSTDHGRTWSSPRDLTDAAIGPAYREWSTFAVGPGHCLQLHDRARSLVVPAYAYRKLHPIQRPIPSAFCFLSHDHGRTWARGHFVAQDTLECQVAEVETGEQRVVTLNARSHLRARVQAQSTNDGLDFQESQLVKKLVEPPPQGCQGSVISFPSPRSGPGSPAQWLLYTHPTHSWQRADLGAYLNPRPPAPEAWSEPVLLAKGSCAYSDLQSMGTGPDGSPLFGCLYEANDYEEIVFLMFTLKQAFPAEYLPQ

AuSialidase = biological target: T3, AuSialidase (Paenarthrobacter ureafaciens, UniProt Q5W7Q2); assay: Sialidase inhibition assay (Example 7); format: biochemical, Arthrobacter ureafaciens; details: for inhibition at 1000 µM: read-out: Percentage inhibition (%) against AuSialidase
T3 sequence (Q5W7Q2 39-990): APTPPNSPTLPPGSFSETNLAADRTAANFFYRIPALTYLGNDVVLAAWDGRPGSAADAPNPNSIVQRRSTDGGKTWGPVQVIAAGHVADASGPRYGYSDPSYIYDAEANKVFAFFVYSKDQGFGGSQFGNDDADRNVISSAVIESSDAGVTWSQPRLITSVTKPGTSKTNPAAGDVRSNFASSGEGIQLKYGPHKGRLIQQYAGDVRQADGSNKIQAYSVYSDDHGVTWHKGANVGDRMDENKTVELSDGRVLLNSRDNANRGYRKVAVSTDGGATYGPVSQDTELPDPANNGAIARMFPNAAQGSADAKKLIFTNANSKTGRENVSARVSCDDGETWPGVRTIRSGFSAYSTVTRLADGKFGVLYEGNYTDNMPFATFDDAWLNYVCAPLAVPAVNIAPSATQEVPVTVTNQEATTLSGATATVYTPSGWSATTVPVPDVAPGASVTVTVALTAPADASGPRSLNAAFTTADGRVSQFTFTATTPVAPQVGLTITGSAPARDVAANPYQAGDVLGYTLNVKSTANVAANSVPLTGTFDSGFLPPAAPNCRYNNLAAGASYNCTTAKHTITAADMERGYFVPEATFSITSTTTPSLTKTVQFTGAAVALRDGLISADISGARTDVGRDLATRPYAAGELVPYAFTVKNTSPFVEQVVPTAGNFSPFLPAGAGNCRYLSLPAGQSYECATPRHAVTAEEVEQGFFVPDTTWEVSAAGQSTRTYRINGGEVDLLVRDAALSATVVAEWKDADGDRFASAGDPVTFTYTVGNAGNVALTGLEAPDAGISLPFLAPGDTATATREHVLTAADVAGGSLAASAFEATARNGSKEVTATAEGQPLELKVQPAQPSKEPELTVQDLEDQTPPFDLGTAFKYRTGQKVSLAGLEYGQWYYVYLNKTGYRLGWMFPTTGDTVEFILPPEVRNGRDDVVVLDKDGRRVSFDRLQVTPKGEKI

SpNanA = SpNanA (Streptococcus pneumoniae, UniProt P62575); assay: Sialidase inhibition assay (Example 7); format: biochemical; details: for Percentage inhibition (%) against SpNanA: 1 mM of each inhibitor, substrate Neu5Acα2-3GalβpNP 0.3 mM, pH 6.0; for inhibition at 1000 µM: pH 6, read-out: Percentage inhibition (%) against SpNanA
Chain of SpNanA (P62575 54-1006): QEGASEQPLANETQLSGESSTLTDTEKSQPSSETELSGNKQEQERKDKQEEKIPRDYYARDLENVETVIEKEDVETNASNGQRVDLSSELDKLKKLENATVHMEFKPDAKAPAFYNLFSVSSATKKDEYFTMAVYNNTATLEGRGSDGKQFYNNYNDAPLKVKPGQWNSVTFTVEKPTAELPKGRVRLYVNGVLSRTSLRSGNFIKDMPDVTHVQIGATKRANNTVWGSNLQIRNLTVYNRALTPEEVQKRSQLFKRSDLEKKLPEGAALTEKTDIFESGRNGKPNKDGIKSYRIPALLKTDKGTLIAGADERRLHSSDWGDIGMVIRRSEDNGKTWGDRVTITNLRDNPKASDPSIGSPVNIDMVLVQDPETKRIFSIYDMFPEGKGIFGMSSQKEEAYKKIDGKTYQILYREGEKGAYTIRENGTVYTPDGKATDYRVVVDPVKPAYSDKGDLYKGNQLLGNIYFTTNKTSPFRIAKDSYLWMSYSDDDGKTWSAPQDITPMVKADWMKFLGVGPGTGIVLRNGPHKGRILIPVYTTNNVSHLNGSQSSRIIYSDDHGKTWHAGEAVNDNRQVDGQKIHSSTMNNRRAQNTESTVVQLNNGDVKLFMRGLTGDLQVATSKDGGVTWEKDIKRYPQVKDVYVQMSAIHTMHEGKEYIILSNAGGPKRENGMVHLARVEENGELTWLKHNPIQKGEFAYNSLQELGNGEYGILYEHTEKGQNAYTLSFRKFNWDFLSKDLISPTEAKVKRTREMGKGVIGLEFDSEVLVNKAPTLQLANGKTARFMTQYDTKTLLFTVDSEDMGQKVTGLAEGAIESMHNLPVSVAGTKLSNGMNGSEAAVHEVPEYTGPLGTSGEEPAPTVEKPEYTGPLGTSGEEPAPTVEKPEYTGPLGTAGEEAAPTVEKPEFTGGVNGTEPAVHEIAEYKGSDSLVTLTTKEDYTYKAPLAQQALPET

SpNanC [4] = biological target: T1, SpNanC; assay: Sialidase inhibition assay (Example 7); details: for inhibition at 1000 µM: pH 6.5, read-out: Percentage inhibition (%) against SpNanC
VcSialidase = VcSialidase (Vibrio cholerae serotype O1, UniProt P0C6E9); assay: Sialidase inhibition assay (Example 7); format: biochemical; details: for inhibition at 1000 µM: pH 5.5, read-out: Percentage inhibition (%) against VcSialidase
Chain of VcSialidase (P0C6E9 25-781): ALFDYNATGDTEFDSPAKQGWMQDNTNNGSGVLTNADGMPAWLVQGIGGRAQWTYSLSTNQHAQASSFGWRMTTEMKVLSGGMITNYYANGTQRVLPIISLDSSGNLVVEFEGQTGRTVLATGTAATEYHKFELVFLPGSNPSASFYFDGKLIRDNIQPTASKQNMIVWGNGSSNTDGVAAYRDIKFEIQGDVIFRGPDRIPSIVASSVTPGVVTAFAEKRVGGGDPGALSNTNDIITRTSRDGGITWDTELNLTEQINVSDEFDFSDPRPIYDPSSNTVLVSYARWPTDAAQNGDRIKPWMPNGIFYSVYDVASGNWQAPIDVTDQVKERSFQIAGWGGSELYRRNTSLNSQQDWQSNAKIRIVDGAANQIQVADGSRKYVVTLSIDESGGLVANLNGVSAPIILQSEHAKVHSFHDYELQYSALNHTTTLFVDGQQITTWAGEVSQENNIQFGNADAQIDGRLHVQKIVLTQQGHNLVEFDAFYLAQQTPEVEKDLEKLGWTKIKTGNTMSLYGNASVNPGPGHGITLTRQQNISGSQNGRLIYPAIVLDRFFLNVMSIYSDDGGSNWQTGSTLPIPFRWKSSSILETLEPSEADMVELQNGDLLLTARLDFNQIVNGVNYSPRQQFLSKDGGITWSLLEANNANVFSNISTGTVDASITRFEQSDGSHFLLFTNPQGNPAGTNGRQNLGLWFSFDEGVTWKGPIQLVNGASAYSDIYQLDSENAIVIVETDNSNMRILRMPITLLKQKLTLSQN

BiNanH2 = BiNanH2 (Bifidobacterium longum subsp. infantis, UniProt A0ACD7UU12); assay: Sialidase inhibition assay (Example 7); format: biochemical; details: pH 5, read-out: Percentage inhibition (%) against BiNanH2
Chain of BiNanH2 (A0ACD7UU12 entry or part of it): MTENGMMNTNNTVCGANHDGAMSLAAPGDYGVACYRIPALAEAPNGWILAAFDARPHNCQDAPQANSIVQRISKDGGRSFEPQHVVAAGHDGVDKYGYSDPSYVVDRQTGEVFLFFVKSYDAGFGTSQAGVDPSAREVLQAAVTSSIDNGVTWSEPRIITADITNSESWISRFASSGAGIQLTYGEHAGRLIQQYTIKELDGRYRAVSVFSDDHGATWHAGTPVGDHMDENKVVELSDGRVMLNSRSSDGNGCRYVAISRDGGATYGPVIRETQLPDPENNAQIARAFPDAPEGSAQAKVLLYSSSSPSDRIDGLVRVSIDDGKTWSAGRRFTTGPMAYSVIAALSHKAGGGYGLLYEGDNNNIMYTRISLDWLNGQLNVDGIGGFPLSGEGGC

CpNanI = format: biochemical, Clostridium perfringens; details: 1 mM of each inhibitor; substrate Neu5Acα2-3GalβpNP 0.3 mM; pH 5.0
SpNanB [5] = biological target: T2, SpNanB; assay: Sialidase inhibition assay (Example 7); format: biochemical; details: for Percentage inhibition (%) against SpNanB: 1 mM of each inhibitor, substrate Neu5Acα2-3GalβpNP 0.3 mM, pH 6.0; for inhibition at 1000 µM: pH 6, read-out: Percentage inhibition (%) against SpNanB
PmST1 = PmST1 (Pasteurella multocida, UniProt Q15KI8); assay: Sialidase inhibition assay (Example 7); format: biochemical; details: 1 mM of each inhibitor; substrate Neu5Acα2-3GalβpNP 0.3 mM; CMP 0.4 mM; pH 5.5; read-out: Percentage inhibition (%) against PmST1
Chain of PmST1 (Q15KI8 entry or part of it): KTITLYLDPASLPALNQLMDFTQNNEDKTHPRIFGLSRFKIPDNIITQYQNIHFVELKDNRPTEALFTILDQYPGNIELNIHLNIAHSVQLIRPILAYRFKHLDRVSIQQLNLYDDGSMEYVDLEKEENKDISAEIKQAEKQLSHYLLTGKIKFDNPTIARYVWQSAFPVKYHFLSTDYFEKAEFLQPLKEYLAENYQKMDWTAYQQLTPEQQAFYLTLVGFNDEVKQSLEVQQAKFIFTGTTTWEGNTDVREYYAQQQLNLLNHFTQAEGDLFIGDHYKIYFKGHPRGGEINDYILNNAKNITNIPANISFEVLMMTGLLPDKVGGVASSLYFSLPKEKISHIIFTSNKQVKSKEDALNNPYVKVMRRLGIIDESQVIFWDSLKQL

SpNanC [6] = details: previously reported recombinant SpNanC; cited from earlier work
SpNanB [7] = biological target: T2, SpNanB; assay: Hydrolysis of 2,7-anhydro-sialic acids by SpNanB; details: SpNanB (1.0 mg/mL); 37° C. for 24 h
[8] = 1 mM of each inhibitor, substrate Neu5Acα2-3GalβpNP 0.3 mM, pH 5.5

T1 sequence (A0A0H2UQE4 entry or part of it): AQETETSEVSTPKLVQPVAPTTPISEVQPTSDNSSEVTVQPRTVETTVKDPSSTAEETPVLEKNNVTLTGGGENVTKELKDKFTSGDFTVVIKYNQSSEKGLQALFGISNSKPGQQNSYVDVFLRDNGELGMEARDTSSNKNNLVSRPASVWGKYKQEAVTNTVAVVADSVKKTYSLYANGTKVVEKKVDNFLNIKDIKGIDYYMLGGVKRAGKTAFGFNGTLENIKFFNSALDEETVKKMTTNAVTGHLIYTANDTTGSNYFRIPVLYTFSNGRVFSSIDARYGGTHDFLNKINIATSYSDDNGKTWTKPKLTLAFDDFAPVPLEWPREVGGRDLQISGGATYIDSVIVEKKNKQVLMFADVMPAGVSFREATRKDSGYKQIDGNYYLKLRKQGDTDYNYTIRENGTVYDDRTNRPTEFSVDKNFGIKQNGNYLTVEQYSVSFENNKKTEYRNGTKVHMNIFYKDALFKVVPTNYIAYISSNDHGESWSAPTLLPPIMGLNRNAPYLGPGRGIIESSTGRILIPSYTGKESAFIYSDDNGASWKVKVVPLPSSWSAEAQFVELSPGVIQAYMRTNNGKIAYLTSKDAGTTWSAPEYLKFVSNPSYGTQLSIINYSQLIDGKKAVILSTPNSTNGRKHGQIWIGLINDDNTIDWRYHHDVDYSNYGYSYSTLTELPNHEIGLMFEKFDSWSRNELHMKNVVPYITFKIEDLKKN

| Compound | inhibition at 1000 µM (hNEU2) | inhibition at 1000 µM (AuSialidase; [8]) | Percentage inhibition (%) against SpNanA (SpNanA) | inhibition at 1000 µM (SpNanA) | inhibition at 1000 µM (SpNanC [4]) | IC50 (VcSialidase) | inhibition at 1000 µM (VcSialidase) | inhibition at 1000 µM (BiNanH2) | Percentage inhibition (%) against CpNanI (CpNanI) | IC50 (SpNanB [5]) | Percentage inhibition (%) against SpNanB (SpNanB [5]) | inhibition at 1000 µM (SpNanB [5]) | inhibition at 1000 µM (PmST1) | other results |
| --- | --- | --- | --- | --- | --- | --- | --- | --- | --- | --- | --- | --- | --- | --- |
| CC(=O)N[C@H]1[C@H]([C@H](O)[C@H](O)CO)OC(O[C@H]2[C@@H](O)[C@@H](CO)O[C@@H](Oc3ccc([N+](=O)[O-])cc3)[C@@H]2O)(C(=O)O)C[C@@H]1O (some centres unmarked) [Neu5Acα2-3GalβpNP] | – | – | – | – | – | – | – | – | – | – | – | – | – | Km (SpNanC [1]): 2700 ± 500 µM; kcat (SpNanC [1]): 406.8 ± 39.0 s⁻¹; Recognition by SpNanB (substrate specificity) (SpNanB [2]): + (+ represents >80% conversion); Percentage conversion (%) by SpNanC (SpNanC [3]): 85.1 ± 2.4% |
| O=C(O)[C@@]12C[C@@H](O)[C@@H](NC3CCCCC3)C(O1)[C@@H]([C@H](O)CO)O2 [2-4] | 3.6 ± 0.1% | 16.8 ± 2.4% | weak inhibition | 61.2 ± 0.6% | 94.2 ± 0.1% | > 1000 µM | 1.2 ± 0.7% | 1.2 ± 0.9% | 13.6 ± 0.1% | 180 ± 23 µM | effective inhibitory activity | 86.6 ± 0.3% | 12.3 ± 1.9% | IC50 (SpNanA): 500 to 1000 µM; Percentage inhibition (%) against SpNanC (SpNanC [4]; 1 mM of each inhibitor, substrate Neu5Acα2-3GalβpNP 0.3 mM, pH 6.5): showed inhibition |
| N[C@H]1[C@H]2O[C@@](C(=O)O)(C[C@@H]1O)O[C@@H]2[C@H](O)CO [2-3, 5-Amino-2,7-anhydro-3,5-dideoxy-α-D-glycero-D-galacto-non-2-ulopyranosonic acid] | 1.4 ± 2.4% | 1.3 ± 2.2% | – | 19.3 ± 4.2% | 14.9 ± 3% | – | 1.3 ± 2% | 3.2 ± 3.2% | 10.1 ± 5.7% | – | – | 11.7 ± 2.6% | 13.8 ± 3.3% | – |
| CC(=O)N[C@H]1[C@H]([C@H](O)[C@H](O)CO)O[C@@](O[C@H]2[C@@H](O)[C@@H](CO)O[C@@H](O[C@H]3[C@H](O)[C@@H](O)C(O)O[C@@H]3CO)[C@@H]2O)(C(=O)O)C[C@@H]1O (stereo partly drawn) [α2-3-sialyllactose] | – | – | – | – | – | – | – | – | – | – | – | – | – | Km (SpNanC [6]): 1080 ± 350 µM; kcat (SpNanC [6]): 0.313 ± 0.052 s⁻¹ |
| CC(=O)N[C@H]1[C@H]2O[C@@](C(=O)O)(C[C@@H]1O)O[C@@H]2[C@H](O)CO [2-1, 5-Acetamido-2,7-anhydro-3,5-dideoxy-α-D-glycero-D-galacto-non-2-ulopyranosonic acid] | 4.6 ± 1.1% | 49.4 ± 1.3% | – | 36.4 ± 0.1% | 3 ± 1.9% | – | 22.7 ± 1.2% | 6.6 ± 1.8% | 26.7 ± 3.7% | – | – | 30 ± 1.7% | 10.2 ± 2.8% | Conversion to Neu5Ac by SpNanB, estimated yield based on TLC (SpNanB [7]): 80% |
| O=C(N[C@H]1[C@H]2O[C@@](C(=O)O)(C[C@@H]1O)O[C@@H]2[C@H](O)CO)C(F)(F)F [2-2, 2,7-Anhydro-3,5-dideoxy-5-trifluoroacetamido-α-D-glycero-D-galacto-non-2-ulopyranosonic acid] | 2.5 ± 2.1% | 85.1 ± 0.3% | moderate inhibitory activity | 83.8 ± 0.3% | 4.4 ± 2% | 500 to 1000 µM | 62.1 ± 0.6% | 3.8 ± 2.6% | 44.1 ± 1.0% | 250 to 500 µM | weak inhibition | 68.2 ± 2.6% | 11 ± 2.7% | Percentage inhibition (%) against AuSialidase (AuSialidase; [8]): moderate inhibitory activity; IC50 (AuSialidase; read-out: IC50 against AuSialidase): 225 ± 34 µM; Percentage inhibition (%) against VcSialidase (VcSialidase; [8]): weak inhibition |
